Measurements taken from ChEMBL document CHEMBL6121019, “Design, synthesis and biological evaluation of bisnoralcohol derivatives as novel IRF4 inhibitors for the treatment of multiple myeloma” (Eur J Med Chem, 2025).
Active and inactive are the calls of the source. The calls are words filed in the database; no cut-off is given here.

Legend:
[1] = Antiproliferative activity against human HAF cells assessed as inhibition of cell viability measured after 72 hrs by MTS assay; format: toxicity, cell-based
[2] = tested on: NCI-H929; test: Antitumor activity against human NCI-H929 cells xenografted in Balb/C nude mouse model assessed as reduction in Ki67 expression at 25 mg/kg by immunohistochemical staining based analysis; format: functional, organism-based
[3] = Toxicity in Balb/C nude mouse assessed as change in body weight at 25 mg/kg administered once daily and measured every three days for 34 days; format: organism-based; conditions: in vivo, 816 h, time 34 day
[4] = Antiproliferative activity against human MM1.R cells assessed as inhibition of cell viability measured after 72 hrs by MTS assay; format: functional, cell-based; conditions: MM.1R
[5] = Antiproliferative activity against human HaCaT cells assessed as inhibition of cell viability measured after 72 hrs by MTS assay; format: toxicity, cell-based
[6] = tested on: NCI-H929; test: Antitumor activity against human NCI-H929 cells xenografted in Balb/C nude mouse model assessed as inhibition of Akt phosphorylation level at 25 mg/kg by Western blot analysis; format: functional, organism-based
[7] = tested on: NCI-H929; test: Antitumor activity against human NCI-H929 cells xenografted in Balb/C nude mouse model assessed as inhibition of […] expression at 25 mg/kg by Western blot analysis; format: functional, organism-based
[8] = tested on: NCI-H929; test: Antitumor activity against human NCI-H929 cells xenografted in Balb/C nude mouse model assessed as increase in gammaH2AX expression at 25 mg/kg by Western blot analysis; format: functional, organism-based
[9] = Toxicity in Balb/C nude mouse assessed as side effects at 25 mg/kg administered once daily and measured every three days for 34 days by H and E staining based analysis; format: organism-based; conditions: in vivo, 816 h, time 34 day
[10] = biological target: T1, Interferon regulatory factor 4 (Homo sapiens, UniProt Q15306); test: Inhibition of IRF4 (unknown origin) incubated for 1 hr by fluorescence polarization assay
T1 sequence (Q15306 whole entry): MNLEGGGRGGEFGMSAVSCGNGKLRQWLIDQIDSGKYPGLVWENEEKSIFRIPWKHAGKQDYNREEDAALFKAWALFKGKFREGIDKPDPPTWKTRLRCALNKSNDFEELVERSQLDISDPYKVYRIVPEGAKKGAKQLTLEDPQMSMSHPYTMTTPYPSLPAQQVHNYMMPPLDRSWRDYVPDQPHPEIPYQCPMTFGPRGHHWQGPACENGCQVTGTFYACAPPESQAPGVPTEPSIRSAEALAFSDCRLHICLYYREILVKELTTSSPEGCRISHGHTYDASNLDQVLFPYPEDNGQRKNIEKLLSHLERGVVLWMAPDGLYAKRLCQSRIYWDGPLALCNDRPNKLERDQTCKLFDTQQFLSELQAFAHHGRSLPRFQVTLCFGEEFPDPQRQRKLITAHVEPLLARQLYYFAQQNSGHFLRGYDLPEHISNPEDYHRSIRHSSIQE

[11] = tested on: NCI-H929; test: Antitumor activity against human NCI-H929 cells xenografted in Balb/C nude mouse model assessed as inhibition of ERK phosphorylation level at 25 mg/kg by Western blot analysis; format: functional, organism-based
[12] = tested on: NCI-H929; test: Antiproliferative activity against human NCI-H929 cells assessed as inhibition of cell viability measured after 72 hrs by MTS assay; format: functional, cell-based; conditions: NCI-H929, 72 h
[13] = tested on: NCI-H929; test: Antitumor activity against human NCI-H929 cells xenografted in Balb/C nude mouse model assessed as inhibition of inhibition of cyclin D1 expression at 25 mg/kg by Western blot analysis; format: functional, organism-based
[14] = tested on: RPMI-8226; test: Antiproliferative activity against human RPMI-8226 cells assessed as inhibition of cell viability measured after 72 hrs by MTS assay; format: functional, cell-based; conditions: RPMI-8226, 72 h
[15] = Toxicity in Balb/C nude mouse assessed as changes in main organ at 25 mg/kg administered once daily and measured every three days for 34 days by H and E staining based analysis; format: organism-based; conditions: in vivo, 816 h, time 34 day
[16] = Selectivity ratio IC50 for human RPMI-8226 cells to IC50 for human MM1.R cells; format: toxicity
[17] = Selectivity ratio IC50 for human RPMI-8226 cells to IC50 for human NCI-H929 cells; format: toxicity

IC50 [10] [µM]	IC50 [12] [µM]	IC50 [14] [µM]	SMILES	IC50 at 72 h [1] [µM]	Activity [2]	Activity [3]	IC50 [4] [µM]	IC50 at 72 h [5] [µM]	Activity [6]	Activity [7]	Activity [8]	Activity [9]	Activity [11]	Activity [13]	Activity [15]	Ratio IC50 [16]	Ratio IC50 [17]
> 20	2.39	50.2	Nc1cccc2c1CN(C1CCC(=O)NC1=O)C2=O (stereo unspecified) [LENALIDOMIDE]	> 100	inactive	Non-toxic	4.52	> 100	Active	Active	Active	Non-toxic	Active	Active	Non-toxic		
3.65	0.22	0.26	Cc1ccc(NC(=O)[C@@H](C)[C@H]2CC[C@H]3[C@@H]4C(=O)C=C5C(C)(C)C(=O)C(C#N)=C[C@]5(C)[C@H]4CC[C@]23C)cc1	> 100			0.27	> 100								1	1.2
4.86	0.7	0.72	C[C@H](C(=O)Nc1ccccc1)[C@H]1CC[C@H]2[C@@H]3C(=O)C=C4C(C)(C)C(=O)C(C#N)=C[C@]4(C)[C@H]3CC[C@]12C	> 100			0.11	> 100								6.5	1
